The source of these data is publication PMC13379236 (Cell reports, 2026).

In assay [1] the test system is NLRP1. The following applies: treatment of cells with pan-CRL inhibitor; cited from earlier work. An excerpt:
Human NLRP1 (NACHT, LRR, and PYD domains-containing protein 1) has recently been characterized as a substrate of CRL2 in complex with either ZYG11B or ZER1.[7] NLRP1 is an effector-triggered immunity (ETI) sensor of pathogen-encoded proteases, wherein cleavage of NLRP1 in mice and humans by specific bacterial or viral proteases results in inflammasome formation, which leads to subsequent release of pro-inflammatory cytokines such as IL-1b and IL-18 and pyroptotic cell death.[7]-[10] The mechanism by which this occurs, termed functional degradation, depends on specific recognition, ubiquitinati ...

Assay [2] concerns the target T1, ZYG11B-EloBC (Homo sapiens, UniProt Q9C0D3). As to the kind of experiment: MBP pull-down with substrate receptor module ZYG11B-EloBC. It counts as binding. The following applies: MBP fusion on amylose resin, prey 1:1, 1 h, 4°C; SDS-PAGE, Coomassie. The protocol:
Peptides corresponding to […] and […] were appended to the N terminus of maltose-binding protein (MBP) and cloned into pET-28a containing an N-terminal His6 tag followed by a TEV protease cleavage site. Fusion proteins were purified by Ni-NTA chromatography, digested with TEV protease, and passed over Ni-NTA resin again to remove TEV and the cleaved His6 tag. Final purification was performed by size-exclusion chromatography. The resulting proteins contained MBP fused to N-terminal Gly/N-degron overhangs. For pulldown experiments, approximately 100 μg MBP fusion protein was immobilized on 50 μL amylose resin and incubated with prey protein at a 1:1 molar ratio for 1 h at 4°C. Resin was washed three times, and bound proteins were eluted in sizing buffer supplemented with 20 mM maltose. Samples were analyzed by SDS-PAGE and Coomassie staining. Pulldown efficiency was quantified as the ratio of MBP–NLRP1 degron signal to ZYG11B signal in the same gel lane. […]
incubation of full-length Cyclin B1 without Gly/N-degron with ZYG11B–EloBC (top). SDS–PAGE analysis of the indicated fractions from the Superose 6 column (dashed lines) confirms complex formation (bottom) C, fluorescence anisotropy binding of ZYG11B-EloBC to indicated fluorescein-labeled peptides (left) and fitted equilibrium dissociation constants (right). […]

The test system of assay [3] is CRL2^ZYG11B. As to the kind of experiment: MBP pull-down with E3 holoenzyme CRL2^ZYG11B. Conditions: MBP fusion on amylose resin, prey 1:1, 1 h, 4°C; SDS-PAGE, Coomassie. It counts as binding, human. The protocol: Bacmids were generated in DH10Bac cells and transfected into Sf9 cells to produce recombinant baculovirus, which was amplified through two additional rounds. Four liters of Sf9 cells at 2 × 10 ^6 cells/mL were infected with amplified virus and harvested after 60 h. Cell pellets were resuspended in buffer B (50 mM Tris-HCl, 500 mM NaCl, 0.5 mM EDTA, 0.5 mM TCEP, and 1 mM PMSF) supplemented with protease inhibitors, lysed by sonication, and clarified by ultracentrifugation at 40,000 rpm for 1 h. The supernatant was incubated with Strep-Tactin Sepharose resin for 2 h, washed extensively with buffer B, and eluted with 20 mM HEPES, pH 7.5, 300 mM NaCl, 0.5 mM TCEP, and 10 mM D-desthiobiotin. The complex was further purified by size-exclusion chromatography in the same sizing buffer used for ZYG11B–EloBC.
To reconstitute the pentameric CRL2–ZYG11B complex (ZBCC), purified ZYG11B–EloBC and CUL2/Rbx1 complexes were mixed at a 1:1 molar ratio and incubated on ice for 30 min. […]
Peptides corresponding to […] and […] were appended to the N terminus of maltose-binding protein (MBP) and cloned into pET-28a containing an N-terminal His6 tag followed by a TEV protease cleavage site. […] Samples were analyzed by SDS-PAGE and Coomassie staining. Pulldown efficiency was quantified as the ratio of MBP–NLRP1 degron signal to ZYG11B signal in the same gel lane. […]

The test system of assay [4] is CUL5/RBX2 with ZYG11B-EloBC. It counts as binding, human.
For assay [5], the target named is T1, ZYG11B-EloBC. The class given is binding.

T1 sequence (Q9C0D3 whole entry, the tested form may be a part): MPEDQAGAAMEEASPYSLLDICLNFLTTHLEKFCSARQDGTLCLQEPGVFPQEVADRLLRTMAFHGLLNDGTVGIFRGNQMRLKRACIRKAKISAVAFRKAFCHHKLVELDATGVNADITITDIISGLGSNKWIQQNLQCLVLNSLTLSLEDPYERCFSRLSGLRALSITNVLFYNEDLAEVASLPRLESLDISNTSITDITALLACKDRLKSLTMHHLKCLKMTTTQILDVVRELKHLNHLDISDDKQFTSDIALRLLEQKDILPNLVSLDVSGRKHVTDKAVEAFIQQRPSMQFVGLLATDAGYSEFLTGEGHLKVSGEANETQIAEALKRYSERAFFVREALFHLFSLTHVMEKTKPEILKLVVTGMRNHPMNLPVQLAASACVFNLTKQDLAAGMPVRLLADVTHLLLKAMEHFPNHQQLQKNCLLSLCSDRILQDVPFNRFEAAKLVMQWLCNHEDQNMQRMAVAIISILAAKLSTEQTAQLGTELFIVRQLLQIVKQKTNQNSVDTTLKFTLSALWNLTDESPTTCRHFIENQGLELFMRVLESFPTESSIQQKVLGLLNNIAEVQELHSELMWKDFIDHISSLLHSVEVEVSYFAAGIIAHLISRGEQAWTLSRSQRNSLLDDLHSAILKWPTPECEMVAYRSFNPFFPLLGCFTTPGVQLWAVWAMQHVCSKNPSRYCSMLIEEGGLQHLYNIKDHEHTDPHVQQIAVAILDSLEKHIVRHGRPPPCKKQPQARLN
T1 sequence (Q15370 whole entry partner, the tested form may be a part): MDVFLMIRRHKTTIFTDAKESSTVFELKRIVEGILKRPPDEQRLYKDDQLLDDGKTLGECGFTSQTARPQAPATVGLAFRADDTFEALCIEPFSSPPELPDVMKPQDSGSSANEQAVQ
T1 sequence (Q15369 17-112 partner limits assumed): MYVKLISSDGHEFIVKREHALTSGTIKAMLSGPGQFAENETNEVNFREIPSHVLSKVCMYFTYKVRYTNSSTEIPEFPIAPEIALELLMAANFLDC

Consider `NS(=O)(=O)OC[C@@H]1C[C@@H](n2ccc3c(N[C@H]4CCc5ccccc54)ncnc32)C[C@@H]1O` [MLN4924], for which the “effect on HRV-mediated activation of NLRP1” value in assay [1] is listed as “impairs HRV-mediated activation of NLRP1”.

Consider GSERRVLRQL [Degron-10], for which the “interaction with ZYG11B-EloBC” value in assay [2] is “interacted”. Also, the “interaction with CRL2^ZYG11B” value in assay [3] is “interacted”. Moreover, the “amount of CUL5/RBX2 retained compared to CUL2/RBX1” value in assay [4] is “reduced compared to CUL2/RBX1”.

Take GSERRVLRQLPDTSG [chimera]: in assay [5], the “co-purification / complex formation with ZYG11B-EloBC” value is reported as “copurified with ZYG11B-EloBC”.

Take GSERRVLRQLPDTSGRRWRE [Degron-20]: the “interaction with ZYG11B-EloBC” value in assay [2] was “interacted”. In assay [3], the “interaction with CRL2^ZYG11B” value is recorded as “interacted”. Also, in assay [4], the “amount of CUL5/RBX2 retained compared to CUL2/RBX1” value is “reduced compared to CUL2/RBX1”.
